In ChEMBL document CHEMBL1131721, “Adenosine-5'-carboxylic acid peptidyl derivatives as inhibitors of protein kinases” (Bioorg Med Chem Lett, 1999) one finds IC50 data, which are given here for 13 compounds.

pIC50: −log10 of the molar value. Residues, ends and D or L forms follow the SMILES beside them. *: point of attachment. X1 = Nc1ncnc2c1ncn2C1O[C@H](C(=O)*)[C@@H](O)[C@H]1O; Ahx = NCCCCCC(=O)O

The pIC50 is −log10 of the IC50, conventionally taken in molar units.

Test [1] addresses T1, CaM kinase I alpha (Zea mays, UniProt O04417).
T1 sequence (O04417 whole entry): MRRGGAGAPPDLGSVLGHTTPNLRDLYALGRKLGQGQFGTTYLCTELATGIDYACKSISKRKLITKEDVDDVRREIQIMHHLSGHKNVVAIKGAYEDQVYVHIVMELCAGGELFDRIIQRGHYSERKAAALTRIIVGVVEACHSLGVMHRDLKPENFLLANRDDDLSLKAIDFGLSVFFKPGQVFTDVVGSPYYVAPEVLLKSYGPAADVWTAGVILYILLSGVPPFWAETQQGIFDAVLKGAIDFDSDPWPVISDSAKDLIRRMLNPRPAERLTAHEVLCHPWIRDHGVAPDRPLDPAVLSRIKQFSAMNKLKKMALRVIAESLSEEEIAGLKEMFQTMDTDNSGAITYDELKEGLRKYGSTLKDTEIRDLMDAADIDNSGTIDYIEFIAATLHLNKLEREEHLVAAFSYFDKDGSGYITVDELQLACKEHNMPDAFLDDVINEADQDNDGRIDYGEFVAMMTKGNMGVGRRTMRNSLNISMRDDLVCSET
Briefly: Inhibition of Calcium-dependent protein kinase 1 (CDPK-1) from maize seedlings.

A short description of test [2]: Inhibition of murine Protein kinase A. Details: species or system Mus musculus; call rule not given here.
A short description of test [3]: Inhibition of Casein kinase 1 from rat liver.
Test [4] in a line: Inhibition of Casein kinase 2 from rat liver.
A short description of test [5]: Inhibition of Casein kinase 2 from rat liver at 100 uM (No inhibition).
Test [6] can be described thus: Inhibition of murine Protein kinase A at 100 uM (No inhibition). Details: species or system Mus musculus.

In the case of `N=C(N)NCCC[C@H](NC(=O)[C@H](CCCNC(=N)N)NC(=O)[C@H](CCCNC(=N)N)NC(=O)[C@H](CCCNC(=N)N)NC(=O)[C@H](CCCNC(=N)N)NC(=O)[C@H](CCCNC(=N)N)NC(=O)CCNC(=O)[C@H]1OC(n2cnc3c(N)ncnc32)[C@H](O)[C@@H]1O)C(=O)O` (stereo partly specified), the pIC50 in test [1] was 4.42; in test [2], 5.74; in test [3] it was under 4.52. For the same compound, the IC50 entry in test [4] is “Not Active”.

Regarding `N=C(N)NCCC[C@H](NC(=O)[C@H](CCCNC(=N)N)NC(=O)[C@H](CCCNC(=N)N)NC(=O)[C@H](CCCNC(=N)N)NC(=O)CCCCCNC(=O)[C@H]1OC(n2cnc3c(N)ncnc32)[C@H](O)[C@@H]1O)C(=O)O` (stereo partly specified) ({X1-Ahx}-RRRR-OH), the pIC50 in test [1] was 4.28.

As to `Nc1ncnc2c1ncn2[C@@H]1O[C@H](CO)[C@@H](O)[C@H]1O` [ADENOSINE], the pIC50 was 3.94 in test [1], 3.85 in test [2], 3.90 in test [3] and under 3.52 in test [4] (read-out: IC50).

As for `N=C(N)NCCC[C@H](NC(=O)[C@H](CCCNC(=N)N)NC(=O)[C@H](CCCNC(=N)N)NC(=O)[C@H](CCCNC(=N)N)NC(=O)[C@H](CCCNC(=N)N)NC(=O)[C@H](CCCNC(=N)N)NC(=O)CCCCCNC(=O)[C@H]1OC(n2cnc3c(N)ncnc32)[C@H](O)[C@@H]1O)C(=O)O` (stereo partly specified), the pIC50 in test [1] was 5.92; in test [2], 6.92; in test [3], under 4.52; in test [4] (read-out: IC50), under 4.52.

On to `N=C(N)NCCC[C@H](NC(=O)[C@H](CCCNC(=N)N)NC(=O)[C@H](CCCNC(=N)N)NC(=O)[C@H](CCCNC(=N)N)NC(=O)[C@H](CCCNC(=N)N)NC(=O)[C@H](CCCNC(=N)N)NC(=O)CCCCCCCNC(=O)[C@H]1OC(n2cnc3c(N)ncnc32)[C@H](O)[C@@H]1O)C(=O)O` (stereo partly specified), for which the pIC50 in test [1] is 5.49; in test [2], 6.62; in test [3] it was under 4.52; in test [4] (read-out: IC50), under 4.52.

For `NC(N)=NCCC[C@@H](N)C(=O)N[C@H](CCCN=C(N)N)C(=O)N[C@H](CCCN=C(N)N)C(=O)N[C@H](CCCN=C(N)N)C(=O)N[C@H](CCCN=C(N)N)C(=O)N[C@H](CCCN=C(N)N)C(=O)O`, the IC50 entry in test [5] and in test [6] was “Not Active” each time. The pIC50 is under 4.30 in test [1] and under 4.00 in test [3].

Consider `C[C@H](NC(=O)C[C@H](NC(=O)C[C@H](NC(=O)[C@H]1O[C@@H](n2cnc3c(N)ncnc32)[C@H](O)[C@@H]1O)C(=O)O)C(=O)O)C(=O)N[C@@H](CCCNC(=N)N)C(=O)N[C@@H](CCCNC(=N)N)C(=O)N[C@@H](CCCNC(=N)N)C(=O)N[C@@H](CCCNC(=N)N)C(=O)N[C@@H](CCCNC(=N)N)C(=O)N[C@@H](CCCNC(=N)N)C(=O)O`, for which the pIC50 is under 4.30 in test [1], 4.95 in test [2], under 4.52 in test [3] and under 4.52 in test [4] (read-out: IC50).

In the case of `N=C(N)NCCC[C@H](NC(=O)[C@H](CCCNC(=N)N)NC(=O)[C@H](CCCNC(=N)N)NC(=O)[C@H](CCCNC(=N)N)NC(=O)[C@H](CCCNC(=N)N)NC(=O)[C@H](CCCNC(=N)N)NC(=O)CCCNC(=O)[C@H]1OC(n2cnc3c(N)ncnc32)[C@H](O)[C@@H]1O)C(=O)O` (stereo partly specified), the pIC50 in test [1] is 4.72; in test [2], 5.89; in test [3], under 4.52; in test [4] (read-out: IC50), under 4.52.

In the case of `N=C(N)NCCC[C@H](NC(=O)[C@H](CCCNC(=N)N)NC(=O)[C@H](CCCNC(=N)N)NC(=O)[C@H](CCCNC(=N)N)NC(=O)[C@H](CCCNC(=N)N)NC(=O)[C@H](CCCNC(=N)N)NC(=O)CCCCCCCCCCNC(=O)[C@H]1OC(n2cnc3c(N)ncnc32)[C@H](O)[C@@H]1O)C(=O)O` (stereo partly specified), the IC50 entry in test [5] is recorded as “Not Active”. Also, the figures for the pIC50 in test [1], in test [2] and in test [3] were 5.31, 6.48 and under 4.52, respectively.

In the case of `C[C@H](NC(=O)CCNC(=O)CCNC(=O)[C@H]1OC(n2cnc3c(N)ncnc32)[C@H](O)[C@@H]1O)C(=O)N[C@@H](CCCNC(=N)N)C(=O)N[C@@H](CCCNC(=N)N)C(=O)N[C@@H](CCCNC(=N)N)C(=O)N[C@@H](CCCNC(=N)N)C(=O)N[C@@H](CCCNC(=N)N)C(=O)N[C@@H](CCCNC(=N)N)C(=O)O` (stereo partly specified), the pIC50 is 4.80 in test [1], 5.37 in test [2], under 4.00 in test [3] and at most 4.52 in test [4].

In the case of `N=C(N)NCCC[C@@H](NC(=O)[C@@H](CCCNC(=N)N)NC(=O)CCCCCNC(=O)[C@H]1OC(n2cnc3c(N)ncnc32)[C@H](O)[C@@H]1O)C(=O)O` (stereo partly specified), the pIC50 in test [1] is 4.46.

As to `CC(=O)NCCCCCC(=O)N[C@@H](CCCN=C(N)N)C(=O)N[C@@H](CCCNC(=N)N)C(=O)N[C@@H](CCCNC(=N)N)C(=O)N[C@@H](CCCNC(=N)N)C(=O)N[C@@H](CCCNC(=N)N)C(=O)N[C@@H](CCCN=C(N)N)C(=O)O` (stereo in doubt), in test [5], the IC50 entry is listed as “Not Active”. Further, the pIC50 is under 4.30 in test [1], under 4.00 in test [2] and under 4.00 in test [3].

On to `N=C(N)NCCC[C@H](NC(=O)[C@H](CCCNC(=N)N)NC(=O)[C@H](CCCNC(=N)N)NC(=O)[C@H](CCCNC(=N)N)NC(=O)[C@H](CCCNC(=N)N)NC(=O)[C@H](CCCNC(=N)N)NC(=O)CNC(=O)[C@H]1OC(n2cnc3c(N)ncnc32)[C@H](O)[C@@H]1O)C(=O)O` (stereo partly specified), for which the pIC50 was 4.17 in test [1], 5.40 in test [2], under 4.52 in test [3] and under 4.52 in test [4] (read-out: IC50).
